Assay [1] deals with T1, Serine/threonine-protein kinase TAO1 (Homo sapiens) (UniProt Q7L7X3).
T1 sequence (whole entry): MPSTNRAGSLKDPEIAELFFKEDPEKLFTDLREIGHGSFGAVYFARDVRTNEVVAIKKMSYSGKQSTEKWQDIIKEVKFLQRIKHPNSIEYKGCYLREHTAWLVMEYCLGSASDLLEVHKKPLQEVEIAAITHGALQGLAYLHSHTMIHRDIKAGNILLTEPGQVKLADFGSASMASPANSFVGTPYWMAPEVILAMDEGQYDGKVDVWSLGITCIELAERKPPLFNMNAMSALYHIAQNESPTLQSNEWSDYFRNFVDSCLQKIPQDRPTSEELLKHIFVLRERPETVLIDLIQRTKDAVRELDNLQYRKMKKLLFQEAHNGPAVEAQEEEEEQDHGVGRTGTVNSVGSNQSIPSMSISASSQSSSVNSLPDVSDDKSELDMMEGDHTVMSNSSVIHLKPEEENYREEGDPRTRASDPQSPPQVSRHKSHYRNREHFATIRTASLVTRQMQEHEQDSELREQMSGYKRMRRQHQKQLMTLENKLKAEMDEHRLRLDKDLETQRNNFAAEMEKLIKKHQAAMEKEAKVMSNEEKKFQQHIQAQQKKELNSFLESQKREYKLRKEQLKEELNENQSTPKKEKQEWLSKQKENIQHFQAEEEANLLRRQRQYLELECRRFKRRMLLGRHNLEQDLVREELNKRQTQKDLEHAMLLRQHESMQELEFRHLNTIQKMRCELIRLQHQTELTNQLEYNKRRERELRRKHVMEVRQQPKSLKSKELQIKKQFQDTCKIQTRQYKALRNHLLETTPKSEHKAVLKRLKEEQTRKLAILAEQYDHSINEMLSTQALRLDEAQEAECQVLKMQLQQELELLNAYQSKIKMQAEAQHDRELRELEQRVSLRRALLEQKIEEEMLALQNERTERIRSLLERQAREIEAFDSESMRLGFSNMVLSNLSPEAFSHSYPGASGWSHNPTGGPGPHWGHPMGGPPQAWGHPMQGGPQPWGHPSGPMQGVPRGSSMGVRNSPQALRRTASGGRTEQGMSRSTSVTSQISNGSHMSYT
Put plainly: Selectivity interaction (KinomeScan (DiscoverX)) EUB0000607a TAOK1. Particulars: at 10 µM.

In assay [2] the target is T2, Mitogen-activated protein kinase kinase kinase 19 (Homo sapiens) (UniProt Q56UN5).
T2 sequence (whole entry): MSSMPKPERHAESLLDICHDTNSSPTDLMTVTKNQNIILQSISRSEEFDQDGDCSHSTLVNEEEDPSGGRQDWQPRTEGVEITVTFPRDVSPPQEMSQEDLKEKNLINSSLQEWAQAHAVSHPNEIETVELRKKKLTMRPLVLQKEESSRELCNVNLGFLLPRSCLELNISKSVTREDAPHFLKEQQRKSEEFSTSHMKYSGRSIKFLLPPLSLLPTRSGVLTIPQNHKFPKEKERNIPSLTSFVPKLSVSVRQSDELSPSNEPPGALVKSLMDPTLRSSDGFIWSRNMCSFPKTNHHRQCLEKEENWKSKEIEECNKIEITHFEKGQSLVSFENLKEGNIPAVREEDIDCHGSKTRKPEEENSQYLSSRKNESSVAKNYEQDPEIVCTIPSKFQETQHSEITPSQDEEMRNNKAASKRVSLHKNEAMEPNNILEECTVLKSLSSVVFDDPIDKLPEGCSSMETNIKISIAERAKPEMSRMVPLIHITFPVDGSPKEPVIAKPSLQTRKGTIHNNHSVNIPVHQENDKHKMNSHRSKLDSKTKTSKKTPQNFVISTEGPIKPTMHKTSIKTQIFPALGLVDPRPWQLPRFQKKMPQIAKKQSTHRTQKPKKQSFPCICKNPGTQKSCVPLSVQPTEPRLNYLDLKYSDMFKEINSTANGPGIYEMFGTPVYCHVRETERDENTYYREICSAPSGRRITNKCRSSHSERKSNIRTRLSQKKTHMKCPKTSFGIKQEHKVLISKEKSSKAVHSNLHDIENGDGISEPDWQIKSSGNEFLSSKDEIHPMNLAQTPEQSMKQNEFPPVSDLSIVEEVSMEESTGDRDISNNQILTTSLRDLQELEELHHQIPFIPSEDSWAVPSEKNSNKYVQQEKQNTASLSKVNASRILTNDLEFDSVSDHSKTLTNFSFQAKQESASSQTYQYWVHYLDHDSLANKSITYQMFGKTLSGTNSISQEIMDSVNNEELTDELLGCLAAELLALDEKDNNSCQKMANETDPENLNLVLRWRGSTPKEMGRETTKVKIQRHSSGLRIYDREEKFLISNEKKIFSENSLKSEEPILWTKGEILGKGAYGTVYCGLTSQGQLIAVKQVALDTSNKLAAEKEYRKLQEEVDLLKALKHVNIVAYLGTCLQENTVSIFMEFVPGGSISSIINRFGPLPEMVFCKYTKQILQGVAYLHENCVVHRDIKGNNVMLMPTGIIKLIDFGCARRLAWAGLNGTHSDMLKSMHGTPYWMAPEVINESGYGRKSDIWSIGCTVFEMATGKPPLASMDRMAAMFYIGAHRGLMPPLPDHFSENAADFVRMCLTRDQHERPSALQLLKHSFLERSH
The experiment in a line: Selectivity interaction (KinomeScan (DiscoverX)) EUB0001619a MAP3K19. Conditions: at 1 µM.

In assay [3] the target is Cyclin-dependent kinase 5 (Homo sapiens, UniProt Q00535). Particulars: at 10 µM.
Cyclin-dependent kinase 5, sequence (Q00535 whole entry, looked up): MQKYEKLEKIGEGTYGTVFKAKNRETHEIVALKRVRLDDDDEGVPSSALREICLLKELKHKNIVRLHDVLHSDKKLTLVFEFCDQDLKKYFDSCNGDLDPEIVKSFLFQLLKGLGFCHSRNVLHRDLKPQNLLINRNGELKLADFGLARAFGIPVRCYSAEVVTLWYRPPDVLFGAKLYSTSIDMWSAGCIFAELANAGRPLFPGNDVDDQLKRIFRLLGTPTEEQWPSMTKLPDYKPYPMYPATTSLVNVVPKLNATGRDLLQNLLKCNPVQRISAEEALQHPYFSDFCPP

Three compounds from ChEMBL document CHEMBL5465560, “Selectivity Literature for EUbOPEN Chemogenomic Library” (2024) can be followed below.

For `CNC(=O)Nc1ccc(-c2nc(N3CC4CCC(C3)O4)c3cnn(C4CCC5(CC4)OCCO5)c3n2)cc1`, the % of control in assay [1] was 100%.
In assay [2], `N#Cc1cccc(-c2c[nH]c3ncnc(N4CCOCC4)c23)c1` returned a % of control of 3.8%.
Turning to `CCN(CC)CCCCNc1ncc2cc(-c3cc(OC)cc(OC)c3)c(NC(=O)NC(C)(C)C)nc2n1`, the % of control in assay [3] came to 100%.
